The target of this experiment is T1, Inositol-trisphosphate 3-kinase B (Homo sapiens) (UniProt P27987).
T1 sequence (whole entry): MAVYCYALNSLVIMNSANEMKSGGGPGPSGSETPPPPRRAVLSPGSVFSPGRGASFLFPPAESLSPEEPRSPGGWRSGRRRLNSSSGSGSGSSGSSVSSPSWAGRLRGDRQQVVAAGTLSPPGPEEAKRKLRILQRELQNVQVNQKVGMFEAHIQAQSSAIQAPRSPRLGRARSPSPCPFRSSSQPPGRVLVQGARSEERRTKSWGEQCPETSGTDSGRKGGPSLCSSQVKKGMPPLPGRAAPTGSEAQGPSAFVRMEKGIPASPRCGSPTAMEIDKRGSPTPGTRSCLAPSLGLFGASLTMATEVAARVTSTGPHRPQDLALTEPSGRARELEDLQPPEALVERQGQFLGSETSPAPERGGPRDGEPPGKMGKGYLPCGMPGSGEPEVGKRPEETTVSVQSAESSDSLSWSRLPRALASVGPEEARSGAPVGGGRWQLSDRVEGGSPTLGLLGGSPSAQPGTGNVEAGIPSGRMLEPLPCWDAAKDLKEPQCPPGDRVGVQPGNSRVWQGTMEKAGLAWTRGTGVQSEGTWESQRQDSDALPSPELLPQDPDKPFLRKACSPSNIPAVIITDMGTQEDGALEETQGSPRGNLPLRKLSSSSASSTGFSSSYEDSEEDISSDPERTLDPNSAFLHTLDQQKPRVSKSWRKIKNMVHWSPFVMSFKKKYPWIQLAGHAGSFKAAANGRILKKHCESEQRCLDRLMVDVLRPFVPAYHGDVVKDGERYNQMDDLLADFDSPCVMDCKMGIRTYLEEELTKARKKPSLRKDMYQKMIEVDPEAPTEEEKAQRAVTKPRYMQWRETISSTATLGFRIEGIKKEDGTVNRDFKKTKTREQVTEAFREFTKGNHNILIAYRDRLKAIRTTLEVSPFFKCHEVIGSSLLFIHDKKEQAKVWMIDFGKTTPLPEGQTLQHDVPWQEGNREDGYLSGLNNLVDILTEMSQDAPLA
The experiment can be described thus: Inhibition of ITPKb in human Jurkat cells assessed as reduction in conversion of IP3 to IP4 using [3H]-myo-inositol incubated for 5 mins by beta-RAM radio-HPLC method. Type of experiment: cell-based.

This is an account of results in ChEMBL document CHEMBL3714741, “Compounds and compositions as ITPKB inhibitors” (2011).

The source made the active and inactive calls. How the calls were made is not given here.

As for `C[C@@H]1CN(Cc2c[nH]nc2C2=CCN(C(=O)CCO)CC2)CCN1c1ccc(C(F)(F)F)cn1`, the inhibition entry is “Active”.
With `C[C@@H]1CN(Cc2c[nH]nc2C(=O)Nc2cc(-c3ccco3)n[nH]2)CCN1c1ccc(C(F)(F)F)cn1`, the inhibition result is “Active”.
The value for `C[C@@H]1CN(Cc2c[nH]nc2-c2ccc(C(N)=O)[nH]2)CCN1c1ccc(C(F)(F)F)cn1` was “Active”.
On to `C[C@@H]1CN(Cc2c[nH]nc2-c2cc(C(N)=O)co2)CCN1c1ccc(C(F)(F)F)cn1`, for which the inhibition result is “Active”.
The value for `Cc1nc(-c2n[nH]cc2CN2CCN(c3ccc(C(F)(F)F)cn3)[C@H](C)C2)[nH]c1C` was “Active”; that for `C[C@@H]1CN(Cc2c[nH]nc2-c2ccc(C(N)=O)o2)CCN1c1ccc(C(F)(F)F)cn1` was “Active”.
`C[C@@H]1CN(Cc2c[nH]nc2-c2ccc(C(=O)O)o2)CCN1c1ccc(C(F)(F)F)cn1`: the inhibition entry is “Active”.
On to `C[C@@H]1CN(Cc2c[nH]nc2C(=O)Nc2n[nH]cc2C#N)CCN1c1ccc(C(F)(F)F)cn1`, for which the inhibition entry was “Active”.
As for `CC(O)CNC(=O)c1c[nH]c(-c2n[nH]cc2CN2CCN(c3ccc(C(F)(F)F)cn3)[C@H](C)C2)c1` (some centres not stated), the inhibition entry is “Active”.
Turning to `C[C@@H]1CN(Cc2c[nH]nc2/C=C2\NC(=N)NC2=O)CCN1c1ccc(C(F)(F)F)cn1`, the inhibition entry is “Active”.
As to `Cc1cc(NC(=O)c2n[nH]cc2CN2CCN(c3ccc(C(F)(F)F)cn3)[C@H](C)C2)n(CCN(C)C)n1`, the inhibition entry is “Active”.
As for `N#Cc1c[nH]c(-c2n[nH]cc2CN2CCN(c3ccc(C(F)(F)F)cn3)[C@H](C(F)(F)F)C2)c1`, the inhibition result is “Active”.
The value for `C[C@@H]1CN(Cc2c[nH]nc2/C=C2\NC(=S)NC2=O)CCN1c1ccc(C(F)(F)F)cn1` was “Active”; that for `CC(=O)N1CC=C(c2n[nH]cc2CN2CCN(c3ccc(C(F)(F)F)cn3)[C@H](C)C2)CC1` was “Active”; that for `CNC(=O)c1c[nH]c(-c2n[nH]cc2CN2CCN(c3ccc(C(F)(F)F)cn3)[C@H](C)C2)c1` was “Active”.
The value for `C[C@@H]1CN(Cc2c[nH]nc2-c2nc3cnccc3[nH]2)CCN1c1ccc(C(F)(F)F)cn1` was “Active”.
As for `C[C@@H]1CN(Cc2c[nH]nc2C(=O)N2CCC(O)CC2)CCN1c1ccc(C(F)(F)F)cn1`, the inhibition entry was “Active”.
Take `C[C@@H]1CN(Cc2c[nH]nc2-c2ccc3cnccc3c2)CCN1c1ccc(C(F)(F)F)cn1`: the inhibition entry is “Active”.
Consider `FC(F)(F)c1ccc(N2CCN(Cc3c[nH]nc3-c3cccs3)CC2)nc1`, for which the inhibition result was “Active”.
In the case of `C[C@@H]1CN(Cc2c[nH]nc2-c2cc(C(=O)N(C)C)c[nH]2)CCN1c1ccc(C(F)(F)F)cn1`, the inhibition entry was “Active”.
Consider `C[C@@H]1CN(Cc2c[nH]nc2C2CCN(C=O)CC2)CCN1c1ccc(C(F)(F)F)cn1`, for which the inhibition entry is “Active”.
With `C[C@@H]1CN(Cc2c[nH]nc2C(=O)Nc2ccncc2)CCN1c1ccc(C(F)(F)F)cn1`, the inhibition entry was “Active”.
Take `C[C@@H]1CN(Cc2c[nH]nc2C(=O)Nc2nc[nH]c2C#N)CCN1c1ccc(C(F)(F)F)cn1`: the inhibition entry is “Active”.
Take `C[C@@H]1CN(Cc2c[nH]nc2-c2cc(C(=O)NCCO)c[nH]2)CCN1c1ccc(C(F)(F)F)cn1`: the inhibition entry is “Active”.
On to `C[C@@H]1CN(Cc2c[nH]nc2-c2nc(C(F)(F)F)c[nH]2)CCN1c1ccc(C(F)(F)F)cn1`, for which the inhibition result is “Active”.
Turning to `C[C@@H]1CN(Cc2c[nH]nc2-c2nc(C(N)=O)c[nH]2)CCN1c1ccc(C(F)(F)F)cn1`, the inhibition entry was “Active”.
Regarding `C[C@@H]1CN(Cc2c[nH]nc2-c2c[nH]c3ncccc23)CCN1c1ccc(C(F)(F)F)cn1`, the inhibition result was “Active”.
As for `C[C@@H]1CN(Cc2c[nH]nc2-c2c[nH]c(C(N)=O)c2)CCN1c1ccc(C(F)(F)F)cn1`, the inhibition entry was “Active”.
The value for `C[C@@H]1CN(Cc2c[nH]nc2-c2nc3c([nH]2)CCCC3)CCN1c1ccc(C(F)(F)F)cn1` was “Active”.
Consider `C[C@@H]1CN(Cc2c[nH]nc2-c2c[nH]c(C#N)c2)CCN1c1ccc(C(F)(F)F)cn1`, for which the inhibition entry is “Active”.
For `C[C@@H]1CN(Cc2c[nH]nc2-c2ccc(C#N)[nH]2)CCN1c1ccc(C(F)(F)F)cn1` the value was “Active”.
For `COC(=O)c1ccc(-c2n[nH]cc2CN2CCN(c3ccc(C(F)(F)F)cn3)[C@H](C)C2)o1` the value was “Active”; for `C[C@@H]1CN(Cc2c[nH]nc2-c2cc(C(=O)N[C@@H](C)CO)c[nH]2)CCN1c1ccc(C(F)(F)F)cn1`, “Active”; for `C[C@@H]1CN(Cc2c[nH]nc2-c2nc3cc(F)ccc3[nH]2)CCN1c1ccc(C(F)(F)F)cn1`, “Active”.
For `C[C@@H]1CN(Cc2c[nH]nc2-c2cc3ccccc3[nH]2)CCN1c1ccc(C(F)(F)F)cn1` the value was “Active”; for `C[C@@H]1CN(Cc2c[nH]nc2-c2nc(-c3ccccc3)c[nH]2)CCN1c1ccc(C(F)(F)F)cn1`, “Active”; for `C[C@@H]1CN(Cc2c[nH]nc2-c2nc(C(=N)N)c[nH]2)CCN1c1ccc(C(F)(F)F)cn1`, “Active”.
With `C[C@@H]1CN(Cc2c[nH]nc2C2=CCN(C=O)CC2)CCN1c1ccc(C(F)(F)F)cn1`, the inhibition entry is “Active”.
As to `C[C@@H]1CN(Cc2c[nH]nc2C2=CCNCC2)CCN1c1ccc(C(F)(F)F)cn1`, the inhibition result was “Active”.
The value for `C[C@@H]1CN(Cc2c[nH]nc2-c2nc(C#N)c[nH]2)CCN1c1ccc(C(F)(F)F)cn1` was “Active”.
As for `C[C@@H]1CN(Cc2c[nH]nc2-c2cc(C(N)=O)c[nH]2)CCN1c1ccc(C(F)(F)F)cn1`, the inhibition entry was “Active”.
For `C[C@@H]1CN(Cc2c[nH]nc2C2CCNCC2)CCN1c1ccc(C(F)(F)F)cn1` the value was “Active”.
As for `C[C@@H]1CN(Cc2c[nH]nc2C(=O)N2CC(O)C2)CCN1c1ccc(C(F)(F)F)cn1`, the inhibition entry was “Active”.
For `C[C@@H]1CN(Cc2c[nH]nc2-c2ccc(C#N)c(=O)[nH]2)CCN1c1ccc(C(F)(F)F)cn1`, the inhibition entry is “Active”.
For the compound `C[C@@H]1CN(Cc2c[nH]nc2-c2cc(C#N)c[nH]2)CCN1c1ccc(C(F)(F)F)cn1`, the inhibition result was “Active”.
As to `C[C@@H]1CN(Cc2c[nH]nc2/C=C2\NC(=O)NC2=O)CCN1c1ccc(C(F)(F)F)cn1`, the inhibition result is “Active”.
As for `C[C@@H]1CN(Cc2c[nH]nc2-c2nc3cc(C#N)ccc3[nH]2)CCN1c1ccc(C(F)(F)F)cn1`, the inhibition entry was “Active”.
With `NC(=O)c1c[nH]c(-c2n[nH]cc2CN2CCN(c3ccc(C(F)(F)F)cn3)[C@H](C(F)(F)F)C2)c1`, the inhibition result is “Active”.
Regarding `C[C@@H]1CN(Cc2c[nH]nc2-c2ccnc3[nH]ccc23)CCN1c1ccc(C(F)(F)F)cn1`, the inhibition entry is “Active”.
For `C[C@@H]1CN(Cc2c[nH]nc2C(=O)N2CCC(O)C2)CCN1c1ccc(C(F)(F)F)cn1` (some centres not stated) the value was “Active”; for `C[C@@H]1CN(Cc2c[nH]nc2-c2nc3ccccc3[nH]2)CCN1c1ccc(C(F)(F)F)cn1`, “Active”.
On to `C[C@@H]1CN(Cc2c[nH]nc2-c2cc(C(=O)O)co2)CCN1c1ccc(C(F)(F)F)cn1`, for which the inhibition result was “Active”.
